# Reference: patent US10617721B2, “Methods for genetic modification of stem cells” (Ospedale San Raffaele S.R.L., priority 2013, dated 2020)
# Experiments:
# cord blood CD34^+ cells [1] = experiment: Lentiviral vector transduction of cord blood CD34+ cells with or without dmPGE2, VCN by qPCR (in vitro); format: cell-based, human
# Description: CD34^+ cells from n=4 cord blood donors (Lonza) were thawed and put into culture in Stem span serum free expansion medium (SFEM) supplemented with 100 ng/mL SCF, 100 ng/mL FLT3L, 50 ng/mL TPO, 50 ng/mL IL6 for 18 h (pre-stimulation), in the presence or absence of 10 μM dmPGE2. After pre-stimulation, cells were incubated with 10^8 TU/mL of a lentiviral vector for 24 h. Cells were then cultured in vitro (n=5 replicates) for 14 days in IMDM+10% FCS before vector copy number (VCN) was measured by qPCR as described in Gentner, B. et al. (2009) Nat.
# cord blood CD34^+ cells [2] = experiment: VCN and engraftment after xenotransplantation of dmPGE2-stimulated, LV-transduced cord blood CD34+ cells into NSG mice; format: in vivo
# Description: Cord blood CD34^+ cells were thawed and placed in culture (10^6 cells/mL) in Stem span serum free medium (SFEM) supplemented with 100 ng/mL SCF, 100 ng/mL FLT3L, 50 ng/mL TPO, 50 ng/mL IL-6 for 18 h (pre-stimulation) and subsequently transduced with a lentiviral vector at 10^8 TU/mL for 24 h. Cells were injected into sublethally irradiated, 8 week old NSG mice (1.5-3×10^5 cells per mouse), and vector copy number (VCN) was analysed in the pooled blood or bone marrow of each group of mice at the indicated time-points using primers specific for human cells. 3 replicate experiments are shown. Left graph: Cells were transduced with a PGK.TRAIL LV, and 10 μM dmPGE2 (dmPGE2 group, n=5 mice) or DMSO (Ctrl group, n=5 mice) was added directly after thawing (t=−16 h with respect to vector addition). Middle graph: Cells were transduced with a PGK.TRAIL LV, and 10 μM dmPGE2 (dmPGE2 group n=5) or DMSO (Ctrl group; n=8) was added 120 min before vector addition (t=−2 h). […], and 10 μM dmPGE2 (dmPGE2 group n=5) or DMSO (Ctrl group; n=5) was added 120 min before vector addition (t=−2 h). In all three experiments, the benefit in transduction observed in vitro was stably maintained long-term, up to 18 weeks after xenotransplantation.
# [3] = test system: CD34^+ cells from adult bone marrow; experiment: Lentiviral vector transduction of adult bone marrow CD34+, CD34+CD38- and CD34+CD38+ cells with or without dmPGE2; format: cell-based, human; conditions: CD34^+ or CD34^+CD38^− HSPC from adult bone marrow after dmPGE2 treatment (10 μM)
# Description: The experiments were carried out as follows: CD34^+ cells from N=3 bone marrow donors (Lonza) were thawed and put into culture in Stem span serum free expansion medium (SFEM) under the following conditions: pre-stimulation in 300 ng/mL SCF, 300 ng/mL FLT3L, 100 ng/mL TPO, 60 ng/mL IL3 for 18 h. Cells were then divided into 3 groups: bulk CD34^+, CD34^+CD38^−, CD34^+CD38^+ (FACS-sorted on a MoFlow cytometer after marking with CD38-APC antibody from BD Bioscience). We then added dmPGE2 (10 μM) or DMSO to the cultures, and pre-stimulated the cells for another 16 h before they were transduced with a GFP-expressing lentiviral vector (LV.PGK.GFP) at 10^8 TU/mL. In vitro culture assays were performed, either as liquid culture for 14 days in IMDM+10% FCS (left) or colony forming cell (CFC) assay (right; plated 800 cells/mL methocult, analysed colony outgrowth after 14 d). Vector copy number was assessed by qPCR as described in Gentner B et al. Nat. Methods 2009; 6:63-66.
# [4] = test system: G-CSF-mobilised CD34+ peripheral blood stem cells; experiment: Lentiviral vector transduction of G-CSF-mobilised CD34+ peripheral blood stem cells with or without dmPGE2 (in vitro); format: cell-based, human; conditions: pre-stimulated with dmPGE2, 18 h
# Description: N=6 transductions of 3 mobilised peripheral blood donors. Cells were thawed, resuspended in serum-free, commercial culture medium (e.g. CellGro) at a density of 10^6 cells/mL in the presence of the following cytokines: 300 ng/mL SCF, 300 ng/mL FLT3L, 100 ng/mL TPO, 60 ng/mL IL-3, and prestimulated for 18 h, in the absence (control, Ctrl) or presence of dmPGE2. Transduction was performed with lentiviral vectors (3 different batches) at 10^8 TU/mL for 12-24 h. Vector copy number was assessed by qPCR after 14 days of in vitro culture in IMDM and 10% FCS. Relative VCN (normalised to the Control group) is shown.
# [5] = test system: CD34^+ cells from G-CSF mobilised peripheral blood (mPB); experiment: VCN in long-term repopulating cells after xenotransplantation of mPB CD34+ cells transduced by protocols P0-P4; format: in vivo, NSG mice
# Description: CD34^+ cells from G-CSF mobilised peripheral blood (mPB) were thawed and placed in culture (10^6 cells/mL) in CellGro medium supplemented with SCF (300 ng/mL), FLT3L (300 ng/mL), TPO (100 ng/mL) and IL-3 (60 ng/mL). Cells were transduced with third generation lentiviral vectors coding for gp91^phox (vectors suitable for the gene therapy of chronic granulomatous disease) at a dose of 10^8 TU/mL. The different protocols used for ex vivo transduction of mPB CD34+ cells are illustrated in (E) and differ in terms of the presence (P1, P2, P3) or absence (P0, P4) of dmPGE2, the timing of dmPGE2 addition (after thawing: P1, P2; 120 min before transduction: P3) and the duration of culture (24 h: P2, P4 versus 44 h: P0, P1, P3).
# (F) 10×10^6 CD34^+ mPB cells from donor 1 were thawed, divided into 4 equal parts and transduced with the SP146/gp91.cogp91^phox. 126T LV from an industry-grade production (Molmed Spa) according to P0, P1, P2 or P3. The outgrowth of 5×10^5 cells put into culture at time zero was injected per mouse (actual numbers: P0 3.66×10^5 per mouse; P1: 4.66×10^5 per mouse; P2: 3.0×10^5 per mouse; P3: 4.86×10^5 per mouse). Mice were euthanised at 20 weeks post transplantation. BM was flushed and pooled from the mice belonging to the same group (P0, P1, P2: n=5 per group; P3: n=3 per group) and depleted for mouse cells. Enriched human cells were then subjected to vector copy number (VCN) analysis using primers specific for human cells (5 technical replicates).
# A replicate experiment was performed using mPB CD34^+ cells from a second donor (G). 15×10^6 CD34^+ mPB cells were thawed, divided into 4 equal parts and transduced with the SP146/gp91.gp91^phoxTGT.126T LV (a vector suitable for CGD gene therapy) coming from a lab-grade production according to protocols P0, P1 (44 h−/+dmPGE2) or P4, P2 (24 h−/+dmPGE2). The outgrowth of 9×10^5 cells put into culture at time zero was injected per mouse (actual numbers: P0 10×10^5 per mouse; P1: 8.2×10^5 per mouse; P4: 4.5×10^5 per mouse; P2: 5.3×10^5 per mouse). VCN was analysed on BM cells from each single mouse 13 weeks after transplantation using a qPCR assay specific for human cells.
# human HSPCs = experiment: Timing of dmPGE2 stimulation and transducability of human HSPCs by lentiviral vectors; format: cell-based
# Description: This experiment was carried out on 1 cord blood and 1 mobilised peripheral blood donor, the relative VCN is shown (normalised to its respective control).
structure (smiles),measurement,setting,value
"CCCCC(C)(C)[C@H](O)/C=C/[C@H]1[C@H](O)CC(=O)[C@@H]1C/C=C\CCCC(=O)O [dmPGE2, 16,16-dimethyl prostaglandin E2]",increase in gene transfer (VCN),"cord blood CD34^+ cells [1]; 10 μM dmPGE2 during 18 h pre-stimulation, LV 10^8 TU/mL 24 h, VCN after 14 days culture",50%
same,increased gene transfer efficiency,cord blood CD34^+ cells [1]; CD34^+ or CD34^+CD38^− HSPC from cord blood after dmPGE2 treatment,1.5 fold
same,time over which benefit in transduction was stably maintained after xenotransplantation,"cord blood CD34^+ cells [2]; 10 μM dmPGE2 at t=−16 h or t=−2 h, three experiments",up to 18 weeks
same,engraftment levels,"cord blood CD34^+ cells [2]; NSG mice, dmPGE2-treated cells",not negatively affected
same,time over which difference in VCN was maintained after transplantation into NSG mice,cord blood CD34^+ cells [2]; after transplantation of dmPGE2-treated cells,more than 4 months
same,increased gene transfer efficiency,[3],1.5 fold
same,transduction by lentiviral vectors,[4],more efficient transduction
same,sustained gain in transduction efficiency in long-term repopulating cells,"[5]; P1 condition (dmPGE2 after thawing, 44 h culture), donor 2, BM 13 weeks after transplantation",did not result in a sustained gain in transduction efficiency
same,transduction-promoting effect in long-term repopulating cells,"[5]; P2 (24 h culture with dmPGE2), donor 2, BM 13 weeks after transplantation",increased transduction well above levels achieved by a 44 h standard protocol
same,increase in VCN into long-term repopulating cells,"[5]; P2 condition (dmPGE2 after thawing, 24 h culture), donor 1, BM 20 weeks post transplantation",~50%
same,"increase in VCN, P3 protocol","[5]; P3 (dmPGE2 120 min before transduction, 44 h culture), donor 1, BM 20 weeks",not statistically significant
same,increase in VCN,"human HSPCs; dmPGE2 added 2 h before LV exposure (t=−2 h), 1 cord blood and 1 mobilised peripheral blood donor",100%
same,VCN increase,human HSPCs; dmPGE2 added at the time of thawing (t=−16 h),~50%
